In US11753373B2, “Protease inhibitors as antivirals” (priority 2021, dated 2023):
Where two headings read alike, the source gives them in different places.

Assays:
SARS-CoV-2 = experiment: Anti-viral in vitro PRNT assay in Vero E6 cells; format: cell-based; conditions: Vero E6 cells, 1000 pfu, 3 days, plaque reduction; for EC50: read-out: anti-SARS-CoV2 (PRNT) in Vero E6 EC50
[1] = format: in vitro ADME, Human; conditions: extraction ratio; for Liver Microsomal Stability (ER) Human, at 0.1 uM: compound at 0.1 uM, human liver microsomes; for Liver Microsomal Stability (ER) Human: compound at 1 uM, human liver microsomes 0.5 mg/mL
[2] = format: in vitro ADME; conditions: extraction ratio, compound at 1 uM; for Liver Microsomal Stability (ER) SD rat: SD rat liver microsomes 0.5 mg/mL; for Liver Microsomal Stability (ER) Beagle dog: beagle dog liver microsomes 0.5 mg/mL; for Liver Microsomal Stability (ER) Monkey: monkey liver microsomes 0.5 mg/mL; for Liver Microsomal Stability (ER) Mouse: mouse liver microsomes 0.5 mg/mL
in vivo [3] = conditions: female, Balb/c, mouse, po, 40 mg/kg
Procedure: (§1) Pharmacokinetics of test compounds was evaluated following an oral administration of a single dose (at 40 mg/kg) to female Balb/c mice.
(§2) Procedure: Test compounds were administered to Balb/c mice (n=3 per sex per time point) by a single oral gavage. The target dose level for oral administration was 40 mg/kg. Blood samples were collected at pre-dose, and at 0.083, 0.25, 0.50, 1, 2, 4, 6, 8, and 12 hours post-dose. Concentrations of test compound were determined by an LC-MS/MS. Non-compartmental Pharmacokinetic parameters of test compounds were analyzed using Phoenix WinNonlin 8.3.
(§3) Animal Dosing: All animals were fasted overnight through approximately 4 hours post-dose. Tap water was provided to mice ad Libitum. The mice were dosed orally at 10.0 ml/kg. The formulation volume of the test compound administered to each animal was calculated based on the body weight measured on the day of dosing.
(§4) Sample Collection and Analysis: Approximately 0.20 mL of blood was collected via orbital sinus vein puncture into EDTA-K2 tubes. Plasma samples were harvested by centrifugation and stored at −80° C. until analysis. The analytical method for test compound involved protein precipitation by adding acetonitrile containing 1% FA and internal standard (A-1-a synthesized in house or Tolbutamide purchased from Sigma), and final analysis by LC-MS/MS. A standard curve was prepared using mouse plasma for the test compound. The calibration curve was linear over a concentration range of 1.0 to 1000 ng/mL.
(§5) Pharmacokinetic and Statistic Analysis: The reported plasma concentrations of test compounds were used to determine pharmacokinetic parameters, using a non-compartmental model for data analysis (Phoenix WinNonlin 8.3). The common pharmacokinetic parameters were calculated, whenever possible, from the plasma concentration-versus-time data. Nominal doses and sampling times were used, except where deviations were noted. […] BQL after Tmax would not participate in calculation of PK parameters.

in vivo [4] = conditions: female, beagle, dog, po, 40 mg/kg
Procedure: Pharmacokinetics of test compounds was evaluated following an oral administration of a single dose (at 40 mg/kg) to female Beagle dogs.
Procedure: Test compounds were orally administered to beagle dogs (single dose). The target dose level for oral administration was 40 mg/kg. Blood samples were collected at pre-dose, and at 0.083, 0.25, 0.50, 1, 2, 4, 6, 8, and 24 hours post-dose. Concentrations of test compound were determined by an LC-MS/MS. Non-compartmental Pharmacokinetic parameters of test compounds were analyzed using Phoenix WinNonlin 8.3.
Animal Dosing: All animals were fasted ˜17-19 h prior to dosing and fed approximately 4 hours after dosing. […] The dogs were dosed at 10.0 ml/kg. The formulation volume of the test compound administered to each animal was calculated based on the body weight measured on the day of dosing.
Sample Collection and Analysis: Approximately 1 mL of blood was collected by jugular vein puncture into tubes containing EDTA-K2 anticoagulant. Plasma samples were harvested by centrifugation (2000 g for 10 minutes at 4° C. within 2 hours after collection) and stored at −80° C. until analysis. The analytical method for test compound involved protein precipitation by adding acetonitrile containing 1% FA and internal standard (A-1-a synthesized in house or Tolbutamide purchased from Sigma), and final analysis by LC-MS/MS. A standard curve was prepared using dog plasma for the test article. The calibration curve was linear over a concentration range of 1.0 to 1000 ng/mL.
as §5

SARS-CoV-2 Omicron [5] = experiment: FRNT assay in Vero E6 cells; format: cell-based; conditions: Severe acute respiratory syndrome coronavirus 2, Vero C1008, 24 h
SARS-CoV-2 Omicron [6] = experiment: FRNT assay in A549-hACE2 cells; format: cell-based; conditions: Severe acute respiratory syndrome coronavirus 2, 24 h
SARS-CoV-2 Omicron [7] = experiment: Virus release assay using EpiAirway; format: cell-based; conditions: Severe acute respiratory syndrome coronavirus 2
[8] = biological target: SARS-CoV-2 M^pro (3CL protease) (Severe acute respiratory syndrome coronavirus 2 (2019-nCoV) (SARS-CoV-2), UniProt P0DTD1); format: biochemical; conditions: read-out: SARS-CoV-2M^pro inhibition IC50
[9] = mouse oral PK, female Balb/c, 40 mg/kg single dose; for AUC0-t / Cmax / Tmax / t1/2: plasma
Procedure: as §1, §2, §3, §4, §5

[10] = Severe acute respiratory syndrome coronavirus 2, Vero C1008, 72 h
[11] = wild type Mpro 17 nM, substrate 40 uM

Row | Structure (SMILES) | EC50 (SARS-CoV-2; [10]) | Liver Microsomal Stability (ER) Human [1] | Liver Microsomal Stability (ER) SD rat [2] | Liver Microsomal Stability (ER) Beagle dog [2] | Liver Microsomal Stability (ER) Monkey [2] | Liver Microsomal Stability (ER) Mouse [2] | AUC0-t (in vivo [3]) | Cmax (in vivo [3]) | Tmax (in vivo [3]) | half-life (in vivo [3]) | IC50 [8, 11] | EC50 (SARS-CoV-2) | AUC0-t [9] | Cmax [9] | Tmax [9] | t1/2 [9] | other results
1 | CC(C)C[C@H](NC(=O)c1cc2ccccc2[nH]1)C(=O)N[C@H](C=O)C[C@@H]1CCNC1=O [Compound A-1-c, N—((S)-4-methyl-1-oxo-1-(((S)-1-oxo-3-((S)-2-oxopyrrolidin-3-yl)propan-2-yl)amino)pentan-2-yl)-1H-indole-2-carboxamide] | 300 nM | 0.12, | 0.05 | 0.09 | 0.14 | 0.04 | 2170 ng·h/mL | 734 ng/mL | 3 h | 1.07 h |  |  |  |  |  |  | Liver Microsomal Stability (ER) Human, at 0.1 uM [1]: 0.45(0.1 uM)*; bioavailability (in vivo [3]): 8%; AUC0-t (in vivo [4]): 36700 ng·h/mL; Cmax (in vivo [4]): 13800 ng/mL; Tmax (in vivo [4]): 0.833 h; bioavailability (in vivo [4]): 31%; half-life (in vivo [4]): 4.84 h
2 | CC(C)C[C@H](NC(=O)c1cc2ccccc2[nH]1)C(=O)N[C@@H](C[C@@H]1CCNC1=O)C(O)S(=O)(=O)[O-].[Na+] (stereo partly drawn) [Compound A-1-d, sodium (2S)-2-((S)-2-(1H-indole-2-carboxamido)-4-methylpentanamido)-1-hydroxy-3-((S)-2-oxopyrrolidin-3-yl)propane-1-sulfonate] | 1060 nM | 0.08 | 0.12 | 0.04 |  | 0.10 | 2620 ng·h/mL | 1610 ng/mL | 0.5 h | 0.893 h |  |  |  |  |  |  | EC50 (SARS-CoV-2 Omicron [5]): 360 nM; EC90 (SARS-CoV-2 Omicron [5]): 410 nM; EC50 (SARS-CoV-2 Omicron [6]): 130 nM; EC90 (SARS-CoV-2 Omicron [6]): 280 nM; EC50 (SARS-CoV-2 Omicron [7]): 12 to 41 nM; EC90 (SARS-CoV-2 Omicron [7]): 12 to 41 nM; AUC0-t (in vivo [4]): 95900 ng·h/mL; Cmax (in vivo [4]): 27800 ng/mL; Tmax (in vivo [4]): 2 h; bioavailability (in vivo [4]): > 83%; half-life (in vivo [4]): 2.73 h
3 | CC(C)C[C@H](NC(=O)c1cc2c(F)cccc2[nH]1)C(=O)N[C@H](C#N)C[C@@H]1CCNC1=O [Compound A-3-a, (2S)—N-[(1S)-1-cyano-2-[(3S)-2-oxopyrrolidin-3-yl]ethyl]-2-[(4-fluoro-1H-indol-2-yl)-formamido]-4-methylpentanamide] | 5180 nM | 0.02 | 0.21 | 0.03 | 0.27 | 0.07 | 15500 ng·h/mL | 8050 ng/mL | 1 h | 0.976 h |  |  |  |  |  |  | 
4 | CC(C)C[C@H](NC(=O)c1cc2c(F)cccc2[nH]1)C(=O)N[C@@H](C[C@@H]1CCNC1=O)C(=O)CO [Compound A-3-e, (2S)-2-[(4-fluoro-1H-indol-2-yl)formamido]-N-[(2S)-4-hydroxy-3-oxo-1-[(3S)-2-oxopyrrolidin-3-yl]butan-2-yl]-4-methylpentanamide] |  | 0.11 | 0.17 | 0.05 |  | 0.23 | 261 ng·h/mL | 131 ng/mL | 0.25 h | 1.25 h |  |  |  |  |  |  | IC50 [8]: 5.11 nM
5 | Cc1cccc2[nH]c(C(=O)N[C@@H](CC(C)C)C(=O)N[C@H](C=O)C[C@@H]3CCNC3=O)cc12 [Compound A-4-a, 4-methyl-N—((S)-4-methyl-1-oxo-1-(((S)-1-oxo-3-((S)-2-oxopyrrolidin-3-yl)propan-2-yl)amino)pentan-2-yl)-1H-indole-2-carboxamide] | 1130 nM | 0.21 | 0.06 | 0.22 | 0.098 | 0.13 |  |  |  | 1 h |  |  |  |  |  |  | IC50 [8]: 2.39 nM
6 | CC(C)C[C@H](CC(=O)[C@@H](NC(=O)OCc1ccccc1)[C@@H](C)OC(C)(C)C)C(=O)N[C@H](C=O)C[C@@H]1CCNC1=O [Compound C-1-b] |  | 0.66 | 0.23 | 0.48 | 0.51 | 0.45 |  |  |  |  | 1.3 nM | 1020 nM | 128.4 ng·h/mL | 46.1 ng/mL | 2 h | 0.704 h | F % (bioavailability) [9]: 2.9%
7 | CC(C)(C)[C@H](NC(=O)C(F)(F)F)C(=O)N1C[C@H]2[C@@H]([C@H]1C(=O)N[C@H](C=O)C[C@@H]1CCNC1=O)C2(C)C [Compound D-1-f] |  | 0.093, | −0.02 | 0.01 | 0.13 | −0.02 |  |  |  |  | 1.08 nM | 7590 nM | 1402 ng·h/mL | 839 ng/mL | 1 h | 1.37 h | Liver Microsomal Stability (ER) Human, at 0.1 uM [1]: 0.22(0.1 uM)*
8 | CC(C)(C)[C@H](NC(=O)C(F)(F)F)C(=O)N1C[C@H]2[C@@H]([C@H]1C(=O)N[C@H](C#N)C[C@@H]1CCCNC1=O)C2(C)C [Compound D-3-a] |  | 0.38 | 0.09 | 0.16 |  | 0.66 |  |  |  |  | 5.83 nM | 1270 nM | 5590 ng·h/mL | 7070 ng/mL | 0.25 h | 0.706 h | 
9 | CC(C)C[C@H](NC(=O)c1cc2ccccc2[nH]1)C(=O)N1C[C@H]2[C@@H]([C@H]1C(=O)N[C@H](C=O)C[C@@H]1CCNC1=O)C2(C)C [Compound G-1-a] |  | 0.28 | 0.16 | 0.09 | 0.33 | 0.00 |  |  |  |  | 9.57 nM | 25100 nM | 36.1 ng·h/mL | 13.3 ng/mL | 1 h | 0.92 h | 
10 | CC(C)C[C@H](NC(=O)C1CC1)C(=O)N1C[C@H]2[C@@H]([C@H]1C(=O)N[C@H](C#N)C[C@@H]1CCNC1=O)C2(C)C [Compound H-1-f] |  | 0.03 | 0.04 | 0.01 |  | 0.27 |  |  |  |  | 28.6 nM |  | 72.0 ng·h/mL | 32.1 ng/mL | 1.0 h | 1.43 h | anti-SARS-CoV2 (PRNT) in Vero E6 EC50 (μM) (SARS-CoV-2): Inactive
